Source: PMC5218480 (PLoS ONE, 2017)

System: MV-4-11 cells
Assay: Gene expression microarray analysis (Affymetrix PrimeView) and GSEA
Assay type: cell-based, human
Parameters: RFU PODN (11730768_x_at) / Fold change /veh PODN (11730768_x_at) / RFU LINC00158 (11744669_a_at) / Fold change /veh LINC00158 (11744669_a_at) / RFU DUSP10 (11751237_a_at) / Fold change /veh DUSP10 (11751237_a_at) / RFU ID3 (11757404_x_at) / Fold change /veh ID3 (11757404_x_at) / RFU PLEKHG5 (11737974_s_at) / Fold change /veh PLEKHG5 (11737974_s_at) / RFU LRRC4B (11730491_at) / Fold change /veh LRRC4B (11730491_at) / RFU GIMAP4 (11747438_a_at) / Fold change /veh GIMAP4 (11747438_a_at) / RFU KRT8 (11758183_x_at) / Fold change /veh KRT8 (11758183_x_at) / RFU CNN1 (11734310_a_at) / Fold change /veh CNN1 (11734310_a_at) / RFU VPS37D (11726825_at) / Fold change /veh VPS37D (11726825_at) / RFU C10orf10 (11716522_x_at) / Fold change /veh C10orf10 (11716522_x_at) / RFU KIR2DL2 /// KIR2DL4 /// KIR2DL5A /// KIR2DL5B /// KIR2DS1 /// KIR2DS2 /// KIR2DS3 /// KIR2DS4 /// KIR3DL3 /// KIR3DL3 /// KIR3DS1 (11738374_at) / Fold change /veh KIR2DL2 /// KIR2DL4 /// KIR2DL5A /// KIR2DL5B /// KIR2DS1 /// KIR2DS2 /// KIR2DS3 /// KIR2DS4 /// KIR3DL3 /// KIR3DL3 /// KIR3DS1 (11738374_at) / RFU C1QL1 (11718748_at) / Fold change /veh C1QL1 (11718748_at) / RFU TMPRSS4 (11747572_a_at) / Fold change /veh TMPRSS4 (11747572_a_at) / RFU HAMP (11756126_x_at) / Fold change /veh HAMP (11756126_x_at) / RFU RNFT2 (11725882_a_at) / Fold change /veh RNFT2 (11725882_a_at) / RFU NR4A2 (11747474_a_at) / Fold change /veh NR4A2 (11747474_a_at) / RFU ABCC12 (11746883_a_at) / Fold change /veh ABCC12 (11746883_a_at) / RFU TMEM136 (11760407_x_at) / Fold change /veh TMEM136 (11760407_x_at) / RFU CLDN22 /// WWC2 (11732394_at) / Fold change /veh CLDN22 /// WWC2 (11732394_at) / RFU HLA-DPB1 (11760878_x_at) / Fold change /veh HLA-DPB1 (11760878_x_at) / RFU SPINT1 (11716480_a_at) / Fold change /veh SPINT1 (11716480_a_at) / RFU GAP43 (11754022_s_at) / Fold change /veh GAP43 (11754022_s_at) / RFU A4GNT (11735810_at) / Fold change /veh A4GNT (11735810_at) / RFU PRB3 (11715151_x_at) / Fold change /veh PRB3 (11715151_x_at) / RFU TUBB4B (11761932_at) / Fold change /veh TUBB4B (11761932_at) / RFU CAPN14 (11732068_a_at) / Fold change /veh CAPN14 (11732068_a_at) / RFU TMCC2 (11721928_a_at) / Fold change /veh TMCC2 (11721928_a_at) / RFU IRGQ (11745062_a_at) / Fold change /veh IRGQ (11745062_a_at) / RFU FAM174B (11720279_a_at) / Fold change /veh FAM174B (11720279_a_at) / RFU TMPRSS4 (11748680_a_at) / Fold change /veh TMPRSS4 (11748680_a_at) / RFU FAM212B (11763350_a_at) / Fold change /veh FAM212B (11763350_a_at) / RFU PLEKHG5 (11743358_a_at) / Fold change /veh PLEKHG5 (11743358_a_at) / RFU ZSCAN30 (11745921_a_at) / Fold change /veh ZSCAN30 (11745921_a_at) / RFU CMKLR1 (11741424_a_at) / Fold change /veh CMKLR1 (11741424_a_at) / RFU LOC101060620 /// MAPK8IP1 (11723275_at) / Fold change /veh LOC101060620 /// MAPK8IP1 (11723275_at) / RFU SPTSSB (11747773_x_at) / Fold change /veh SPTSSB (11747773_x_at) / RFU PRSS12 (11739890_at) / Fold change /veh PRSS12 (11739890_at) / RFU BIN1 (11741810_x_at) / Fold change /veh BIN1 (11741810_x_at) / RFU WNT11 (11732464_a_at) / Fold change /veh WNT11 (11732464_a_at) / RFU C10orf10 (11716521_a_at) / Fold change /veh C10orf10 (11716521_a_at) / RFU C5orf56 (11738089_at) / Fold change /veh C5orf56 (11738089_at) / RFU CYB561 (11721691_x_at) / Fold change /veh CYB561 (11721691_x_at) / RFU ANKRD19P (11752326_a_at) / Fold change /veh ANKRD19P (11752326_a_at) / RFU OR2T12 /// OR2T33 /// OR2T8 (11738714_s_at) / Fold change /veh OR2T12 /// OR2T33 /// OR2T8 (11738714_s_at) / RFU VCAN (11748164_a_at) / Fold change /veh VCAN (11748164_a_at) / RFU JSRP1 (11732532_at) / Fold change /veh JSRP1 (11732532_at) / RFU KRTAP10-11 (11738290_x_at) / Fold change /veh KRTAP10-11 (11738290_x_at) / RFU MYO3A (11730013_a_at) / Fold change /veh MYO3A (11730013_a_at) / RFU EBF3 (11725865_a_at) / Fold change /veh EBF3 (11725865_a_at) / RFU CAMK2N1 (11719241_x_at) / Fold change /veh CAMK2N1 (11719241_x_at) / RFU C5orf56 (11738088_a_at) / Fold change /veh C5orf56 (11738088_a_at) / RFU OLFML3 (11715873_a_at) / Fold change /veh OLFML3 (11715873_a_at) / RFU LOC100653217 /// NTM (11731650_a_at) / Fold change /veh LOC100653217 /// NTM (11731650_a_at) / RFU MAPK11 (11762145_a_at) / Fold change /veh MAPK11 (11762145_a_at) / RFU FIZ1 (11724087_x_at) / Fold change /veh FIZ1 (11724087_x_at) / RFU OASL (11726364_x_at) / Fold change /veh OASL (11726364_x_at) / RFU SOX15 (11748057_x_at) / Fold change /veh SOX15 (11748057_x_at) / RFU CD79A (11719716_a_at) / Fold change /veh CD79A (11719716_a_at) / RFU HIST1H1D (11736915_at) / Fold change /veh HIST1H1D (11736915_at) / RFU CASKIN2 (11723855_a_at) / Fold change /veh CASKIN2 (11723855_a_at) / RFU LOC730098 (11760151_x_at) / Fold change /veh LOC730098 (11760151_x_at) / RFU OR4N2 (11742367_at) / Fold change /veh OR4N2 (11742367_at) / RFU PRRT2 (11749266_a_at) / Fold change /veh PRRT2 (11749266_a_at) / RFU SNX32 (11753110_a_at) / Fold change /veh SNX32 (11753110_a_at) / RFU CDHR5 (11726645_a_at) / Fold change /veh CDHR5 (11726645_a_at) / RFU RCAN1 (11760418_a_at) / Fold change /veh RCAN1 (11760418_a_at) / RFU FAM167A (11723789_a_at) / Fold change /veh FAM167A (11723789_a_at) / RFU FAM26E (11764081_at) / Fold change /veh FAM26E (11764081_at) / RFU ISYNA1 (11749810_s_at) / Fold change /veh ISYNA1 (11749810_s_at) / RFU ACY1 (11761880_at) / Fold change /veh ACY1 (11761880_at) / RFU 11764098_at / Fold change /veh 11764098_at / RFU SAMD14 (11745864_x_at) / Fold change /veh SAMD14 (11745864_x_at) / RFU NPB (11741838_a_at) / Fold change /veh NPB (11741838_a_at) / RFU TMPRSS6 (11731388_a_at) / Fold change /veh TMPRSS6 (11731388_a_at) / RFU KRTAP10-2 (11738614_at) / Fold change /veh KRTAP10-2 (11738614_at) / RFU ARHGAP8 /// PRR5-ARHGAP8 (11727945_x_at) / Fold change /veh ARHGAP8 /// PRR5-ARHGAP8 (11727945_x_at) / RFU KRTAP5-7 /// NADSYN1 (11734609_at) / Fold change /veh KRTAP5-7 /// NADSYN1 (11734609_at) / RFU RASL12 (11751679_a_at) / Fold change /veh RASL12 (11751679_a_at) / RFU CDKN2B (11736163_a_at) / Fold change /veh CDKN2B (11736163_a_at) / RFU PRF1 (11729649_at) / Fold change /veh PRF1 (11729649_at) / RFU, ZNF638 /// ZNF638-IT1 / Fold change vs veh, ZNF638 /// ZNF638-IT1 / RFU, PANK3 / Fold change vs veh, PANK3 / RFU, SH3YL1 / Fold change vs veh, SH3YL1 / RFU, ZEB2 / Fold change vs veh, ZEB2 / RFU, NRIP1 / Fold change vs veh, NRIP1 / RFU, PTTG1IP / Fold change vs veh, PTTG1IP / RFU, CAPN2 / Fold change vs veh, CAPN2 / RFU, MED14 / Fold change vs veh, MED14 / RFU, SNORA58 / Fold change vs veh, SNORA58 / RFU, C1orf63 / Fold change vs veh, C1orf63 / RFU, LRRFIP1 / Fold change vs veh, LRRFIP1 / RFU, NDUFAF7 / Fold change vs veh, NDUFAF7 / RFU, SLC12A2 / Fold change vs veh, SLC12A2 / RFU, IBTK / Fold change vs veh, IBTK / RFU, ESF1 / Fold change vs veh, ESF1 / Fold change vs veh, TMEM50B / RFU, TAOK1 / Fold change vs veh, TAOK1 / RFU, ACBD3 / Fold change vs veh, ACBD3 / RFU, TMA16 / Fold change vs veh, TMA16 / RFU, RWDD3 / Fold change vs veh, RWDD3 / RFU, BCAT1 / Fold change vs veh, BCAT1 / RFU, EDEM3 / Fold change vs veh, EDEM3 / RFU, TMEM33 / Fold change vs veh, TMEM33 / RFU, WDR75 / Fold change vs veh, WDR75 / RFU, AHCTF1 / Fold change vs veh, AHCTF1 / RFU, TFRC / Fold change vs veh, TFRC / RFU, ZDHHC17 / Fold change vs veh, ZDHHC17 / RFU, NOM1 / Fold change vs veh, NOM1 / RFU, ARL8B / Fold change vs veh, ARL8B / RFU, ZBTB11 / Fold change vs veh, ZBTB11 / RFU, TAMM41 / Fold change vs veh, TAMM41 / RFU, KIAA1704 /// LOC100996395 / Fold change vs veh, KIAA1704 /// LOC100996395 / RFU, ING1 / Fold change vs veh, ING1 / RFU, TRMT61B / Fold change vs veh, TRMT61B / RFU, FUBP3 / Fold change vs veh, FUBP3 / RFU, TP53 / Fold change vs veh, TP53 / RFU, TNKS2 / Fold change vs veh, TNKS2 / RFU, ZFP14 / Fold change vs veh, ZFP14 / RFU, ACTR2 / Fold change vs veh, ACTR2 / RFU, PPP3R1 / Fold change vs veh, PPP3R1 / RFU, PIK3R1 / Fold change vs veh, PIK3R1 / RFU, HNRNPA1 / Fold change vs veh, HNRNPA1 / RFU, RNF170 / Fold change vs veh, RNF170 / RFU, ZNF28 / Fold change vs veh, ZNF28 / RFU, RNGTT / Fold change vs veh, RNGTT / RFU, OGT / Fold change vs veh, OGT / RFU, BRD1 / Fold change vs veh, BRD1 / RFU, MARS / Fold change vs veh, MARS / RFU, ZNF655 / Fold change vs veh, ZNF655 / RFU, FAHD1 / Fold change vs veh, FAHD1 / RFU, BDP1 / Fold change vs veh, BDP1 / RFU, LRRCC1 / Fold change vs veh, LRRCC1 / RFU, ARID1A / Fold change vs veh, ARID1A / RFU, ZNF146 / Fold change vs veh, ZNF146 / RFU, ZNF330 / Fold change vs veh, ZNF330 / RFU, GPN3 / Fold change vs veh, GPN3 / RFU, C9orf123 / Fold change vs veh, C9orf123 / RFU, N4BP2L2 / Fold change vs veh, N4BP2L2 / RFU, ARFIP1 / Fold change vs veh, ARFIP1 / RFU, FAM179B / Fold change vs veh, FAM179B / RFU, BCL10 / Fold change vs veh, BCL10 / RFU, UHRF1BP1L / Fold change vs veh, UHRF1BP1L / RFU, BET1 / Fold change vs veh, BET1 / RFU, CNOT2 / Fold change vs veh, CNOT2 / RFU, ZNF268 / Fold change vs veh, ZNF268 / Fold change vs veh, ZNF507 / RFU, DGCR2 / Fold change vs veh, DGCR2 / RFU, WDSUB1 / Fold change vs veh, WDSUB1 / Fold change vs veh, HSP90B1 /// MIR3652 / RFU, ADSS / Fold change vs veh, ADSS / RFU, GK / Fold change vs veh, GK / RFU, ZNF148 / Fold change vs veh, ZNF148 / RFU, TAF9 / Fold change vs veh, TAF9 / RFU, SLC1A5 / Fold change vs veh, SLC1A5 / RFU, SLMO2 / Fold change vs veh, SLMO2 / RFU, ABCC4 / Fold change vs veh, ABCC4 / RFU, LOC101060439 /// RAP1B / Fold change vs veh, LOC101060439 /// RAP1B / RFU, RFX7 / Fold change vs veh, RFX7 / RFU, GTPBP10 / Fold change vs veh, GTPBP10 / RFU, CNEP1R1 / Fold change vs veh, CNEP1R1 / RFU, BIVM-ERCC5 /// ERCC5 / Fold change vs veh, BIVM-ERCC5 /// ERCC5 / RFU, ILF3 / Fold change vs veh, ILF3 / RFU 11762660_at / Fold change /veh 11762660_at / RFU VCAN (11757783_s_at) / Fold change /veh VCAN (11757783_s_at) / RFU DDX43 (11728927_at) / Fold change /veh DDX43 (11728927_at) / RFU KRT8 (11758188_x_at) / Fold change /veh KRT8 (11758188_x_at) / RFU NKD1 (11759106_at) / Fold change /veh NKD1 (11759106_at) / RFU SRD5A1 (11742802_a_at) / Fold change /veh SRD5A1 (11742802_a_at) / RFU TPSAB1 /// TPSB2 (11721975_s_at) / Fold change /veh TPSAB1 /// TPSB2 (11721975_s_at) / RFU GSTM3 (11746129_a_at) / Fold change /veh GSTM3 (11746129_a_at) / RFU IL23R (11737362_x_at) / Fold change /veh IL23R (11737362_x_at) / RFU TMEM51 (11727254_a_at) / Fold change /veh TMEM51 (11727254_a_at) / RFU PIWIL2 (11732686_x_at) / Fold change /veh PIWIL2 (11732686_x_at) / RFU ORM1 (11744905_x_at) / Fold change /veh ORM1 (11744905_x_at) / RFU CCDC152 (11743942_at) / Fold change /veh CCDC152 (11743942_at) / RFU ECM1 (11717891_a_at) / Fold change /veh ECM1 (11717891_a_at) / RFU IL23R (11748794_a_at) / Fold change /veh IL23R (11748794_a_at) / RFU TNFAIP8L3 (11732012_x_at) / Fold change /veh TNFAIP8L3 (11732012_x_at) / RFU MBOAT4 (11741988_at) / Fold change /veh MBOAT4 (11741988_at) / RFU 11764193_at / Fold change /veh 11764193_at / RFU TMEM53 (11763286_at) / Fold change /veh TMEM53 (11763286_at) / RFU MAGEB2 (11727129_at) / Fold change /veh MAGEB2 (11727129_at) / RFU TMEM200A (11744735_a_at) / Fold change /veh TMEM200A (11744735_a_at) / RFU CCDC152 (11751479_a_at) / Fold change /veh CCDC152 (11751479_a_at) / RFU FAM211A (11726209_a_at) / Fold change /veh FAM211A (11726209_a_at) / RFU RGS16 (11746705_a_at) / Fold change /veh RGS16 (11746705_a_at) / RFU VCAN (11755009_s_at) / Fold change /veh VCAN (11755009_s_at) / RFU RHOB (11743442_s_at) / Fold change /veh RHOB (11743442_s_at) / RFU RGS16 (11720943_a_at) / Fold change /veh RGS16 (11720943_a_at) / RFU RGS16 (11720944_at) / Fold change /veh RGS16 (11720944_at) / RFU, VPS4B / Fold change vs veh, VPS4B / RFU, CREB1 / Fold change vs veh, CREB1 / RFU, DNAJC13 / Fold change vs veh, DNAJC13 / RFU, GNAQ / Fold change vs veh, GNAQ / RFU, CDK5R1 / Fold change vs veh, CDK5R1 / RFU, ZRANB3 / Fold change vs veh, ZRANB3 / RFU, CUL4A / Fold change vs veh, CUL4A / RFU, CCNY / Fold change vs veh, CCNY / RFU, UFL1 / Fold change vs veh, UFL1 / RFU, COG3 / Fold change vs veh, COG3 / RFU, DIAPH2 / Fold change vs veh, DIAPH2 / RFU, SKA2 / Fold change vs veh, SKA2 / RFU, AFF3 / Fold change vs veh, AFF3 / RFU, LMF1 / Fold change vs veh, LMF1 / RFU, IPO11 / Fold change vs veh, IPO11 / RFU, DFFB / Fold change vs veh, DFFB / RFU, FOXP1 / Fold change vs veh, FOXP1 / RFU, CARD8 / Fold change vs veh, CARD8 / RFU, STRN3 / Fold change vs veh, STRN3 / RFU, ADK / Fold change vs veh, ADK / RFU, RASSF2 / Fold change vs veh, RASSF2 / RFU, WIPF1 / Fold change vs veh, WIPF1 / RFU, LARP1B / Fold change vs veh, LARP1B / RFU, RASA1 / Fold change vs veh, RASA1 / RFU, RB1 / Fold change vs veh, RB1 / RFU, PPFIA1 / Fold change vs veh, PPFIA1 / RFU, MAT2A / Fold change vs veh, MAT2A / RFU, CCT5 / Fold change vs veh, CCT5 / RFU, WDR92 / Fold change vs veh, WDR92 / RFU, CUX1 / Fold change vs veh, CUX1 / RFU, TTC7A / Fold change vs veh, TTC7A / RFU, TMEM135 / Fold change vs veh, TMEM135 / RFU, DEPTOR / Fold change vs veh, DEPTOR / RFU, CPM / Fold change vs veh, CPM / RFU, DNAJB6 / Fold change vs veh, DNAJB6 / RFU, CACNA2D3 / Fold change vs veh, CACNA2D3 / RFU, DTX4 / Fold change vs veh, DTX4 / RFU, TFCP2 / Fold change vs veh, TFCP2 / RFU, GMCL1 /// GMCL1P1 / Fold change vs veh, GMCL1 /// GMCL1P1 / RFU, AEBP2 / Fold change vs veh, AEBP2 / RFU, SNHG1 /// SNORD22 /// SNORD25 /// SNORD26 /// SNORD27 /// SNORD28 /// SNORD29 /// SNORD31 / Fold change vs veh, SNHG1 /// SNORD22 /// SNORD25 /// SNORD26 /// SNORD27 /// SNORD28 /// SNORD29 /// SNORD31 / Fold change (Aza/veh), C12orf56 (ProbeSet 11735607_a_at) / Fold change (ACY-1035/veh), C12orf56 (ProbeSet 11735607_a_at) / Fold change (Aza/veh), FGFR1OP (ProbeSet 11751329_s_at) / Fold change (ACY-1035/veh), FGFR1OP (ProbeSet 11751329_s_at) / Fold change (Aza/veh), VPS36 (ProbeSet 11739960_a_at) / Fold change (ACY-1035/veh), VPS36 (ProbeSet 11739960_a_at) / RFU SYPL1 (11715823_x_at) / Fold change /veh SYPL1 (11715823_x_at) / RFU IGFBP7 (11715501_s_at) / Fold change /veh IGFBP7 (11715501_s_at) / RFU REEP3 (11722064_at) / Fold change /veh REEP3 (11722064_at) / RFU IGLL1 (11728026_x_at) / Fold change /veh IGLL1 (11728026_x_at): dose or concentration left out as unconfirmed
Settings: MV-4-11 cells, 48 hours

Structure (SMILES): Nc1ccc(-c2cccs2)cc1NC(=O)c1ccc2c(c1)cc(C1CC1)n2CCN1CCOCC1 [ACY-1035]
- Fold change /veh OR2T12 /// OR2T33 /// OR2T8 (11738714_s_at): 1.06
